Active and inactive are the calls of the source. The rule behind the calls is not given here.
Tests used:
[1] = Cytotoxicity against human THP1 cells assessed as cell viability at 40 uM after 72 hrs by SRB assay relative to control; type: cell-based; conditions: THP-1 cells, read-out: Activity
THP-1 [2] = experiment: Antiinflammatory activity against human THP1 cells assessed as inhibition of LPS-induced TNFalpha production by measuring TFNalpha level at 10 uM preincubated for 4 hrs followed by LPS challenge and measured after 24 hrs incubation by ELISA; type: functional
THP-1 [3] = experiment: Antiinflammatory activity against human THP1 cells assessed as inhibition of LPS-induced TNFalpha production preincubated for 4 hrs followed by LPS challenge and measured after 24 hrs incubation by ELISA; type: functional, cell-based
THP-1 [4] = experiment: Cytotoxicity against human THP1 cells assessed as reduction in cell viability after 72 hrs by SRB assay; type: cell-based; conditions: THP-1, 72 h
THP-1 [5] = experiment: Antiinflammatory activity against human THP1 cells assessed as inhibition of LPS-induced TNFalpha production by measuring TFNalpha level at 5 uM preincubated for 4 hrs followed by LPS challenge and measured after 24 hrs incubation by ELISA; type: functional
THP-1 [6] = experiment: Antiinflammatory activity against human THP1 cells assessed as inhibition of LPS-induced TNFalpha production at 200 uM preincubated for 4 hrs followed by LPS challenge and measured after 24 hrs incubation by ELISA; type: functional, cell-based

SMILES | viability at 72 h, 40 µM [1] | Activity (THP-1 [2]) | inhibition (THP-1 [3]) | IC50 (THP-1 [4]) | Activity (THP-1 [5]) | inhibition (THP-1 [6])
C=C1CC[C@@H](O)[C@]2(C)CC[C@@](O)(C(C)(C)O)C[C@@H]12 | > 80% | 328.9 pg/mL | Dose-dependent effect | > 40 µM | 394.3 pg/mL | –
C[C@@H]1C[C@H]2[C@@H]3CCC4=CC(=O)C=C[C@]4(C)[C@@]3(F)[C@@H](O)C[C@]2(C)[C@@]1(O)C(=O)CO | – | – | – | – | – | Active
COC(C)(C)C1=CC[C@@](C)(O)[C@H]2CC[C@](C)(O)[C@H]2C1 | > 80% | 722.2 pg/mL | Dose-dependent effect | > 40 µM | 801.6 pg/mL | –
CC(C)(O)C1=CC[C@@](C)(O)[C@H]2CC[C@@](C)(O)[C@H]2C1 | > 80% | 241.7 pg/mL | Dose-dependent effect | > 40 µM | 699.2 pg/mL | –

From ChEMBL document CHEMBL4334531, “Kalshinoids A-F, Anti-inflammatory Sesquiterpenes from Kalimeris shimadae” (J Nat Prod, 2019)
